# Laboratory results reported in US20020137162A1, “Antisense oligonucleotide inhibition of specific histone deacetylase isoforms” (priority 2000, published 2002).
# d = 2'-deoxy (DNA); m = 2'-O-methyl
# Experiments:
# human HDAC-7 = assay: Antisense ODN screen, HDAC-7 RNA, T24 cells; format: cell-based; conditions: 100 nM, 24 hours, Northern blot
# Protocol: Eighteen phosphorothioate ODNs containing sequences complementary to the 5′ or 3′ untranslated regions of the human HDAC-7 gene (GenBank Accession No. AF239243) were screened as above.
# (§1) Briefly, human A549 and/or T24 human bladder carcinoma cells were seeded in 10 cm tissue culture dishes one day prior to oligonucleotide treatment. The cell lines were obtained from the American Type Culture Collection (ATCC) (Manassas, Va.) and were grown under the recommended culture conditions. Before the addition of the oligonucleotides, cells were washed with PBS (phosphate buffered saline). Next, lipofectin transfection reagent (GIBCO BRL Mississauga, Ontario, Calif.), at a concentration of 6.25 μg/ml, was added to serum free OPTIMEM medium (GIBCO BRL, Rockville, Md.), which was then added to the cells. The oligonucleotides to be screened were then added directly to the cells (i.e., one oligonucleotide per plate of cells). Mismatched oligonucleotides were used as controls. The same concentration of oligonucleotide (e.g., 50 nM) was used per plate of cells for each oligonucleotide tested.
# (§2) Cells were harvested, and total RNAs were analyzed by Northern blot analysis. Briefly, total RNA was extracted using RNeasy miniprep columns (QIAGEN). Ten to twenty gg of total RNA was run on a formaldehyde-containing 1% agarose gel with 0.5 M sodium phosphate (pH 7.0) as the buffer system. […]
# human HDAC-5 = assay: Antisense ODN screen, HDAC-5 RNA, T24 cells; format: cell-based; conditions: 100 nM, 24 hours, Northern blot
# Protocol: Thirteen phosphorothioate ODNs containing sequences complementary to the 5′ or 3′ untranslated regions of the human HDAC-5 gene (GenBank Accession No. AF039691) were screened as above.
# as §1, §2
# human HDAC-1 = assay: Antisense ODN screen, HDAC-1 RNA expression by Northern blot in T24 cells; format: cell-based; conditions: 100 nM, 24 hours
# Protocol: as §1
# Cells were harvested, and total RNAs were analyzed by Northern blot analysis. Briefly, total RNA was extracted using RNeasy miniprep columns (QIAGEN). Ten to twenty gg of total RNA was run on a formaldehyde-containing 1% agarose gel with 0.5 M sodium phosphate (pH 7.0) as the buffer system. RNAs were then transferred to nitrocellulose membranes and hybridized with the indicated radiolabeled DNA probes. Autoradiography was performed using conventional procedures.
# A549 = assay: Apoptosis, Cell Death Detection ELISA; format: cell-based, human; conditions: fold over non-specific background, TSA at 100 ng/ml
# Protocol: (§3) In order to determine the effect of HDAC OSDNs on cell growth and cell death through apoptosis, A549 or T24 cells, MDAmb231 cells, and HMEC cells (ATCC, Manassas, Va.) were treated with HDAC OSDNs as previously described.
# (§4) For the apoptosis study, cells were analyzed using the Cell Death Detection ELISA ^PLUSkit (Roche Diagnostic GmBH, Mannheim, Germany) according to the manufacturer's directions. Typically, 10,000 cells were plated in 96-well tissue culture dishes for 2 hours before harvest and lysis. Each sample was analyzed in duplicate. ELISA reading was done using a MR700 plate reader (DYNEX Technology, Ashford, Middlesex, England) at 410 nm. The reference was set at 490 nm.
# HMEC = assay: Apoptosis, Cell Death Detection ELISA; format: cell-based, human; conditions: fold over non-specific background, TSA at 100 ng/ml
# Protocol: as §3, §4
# T24 = assay: Apoptosis, Cell Death Detection ELISA; format: cell-based, human; conditions: fold over non-specific background, TSA at 100 ng/ml
# Protocol: as §3, §4
# cyclin B1 = assay: Western blot of cyclin B1 in A549 cells; format: cell-based, human; conditions: 48 hours
# Protocol: (§5) Human cancer A549 cells were treated with AS1, AS2 or MM oligo directed human HDAC1 for 48 hours. Total cell lysates were harvested and analyzed by Western blot using antibodies against human HDAC1, cyclin Bl, cyclin A and actin (all from Santa Cruz Biotechnology, Inc., Santa Cruz, Calif.).
# cyclin A = assay: Western blot of cyclin A in A549 cells; format: cell-based, human; conditions: 48 hours
# Protocol: as §5
# human HDAC-4 = assay: Antisense ODN screen, HDAC-4 RNA, T24 cells; format: cell-based; conditions: 100 nM, 24 hours, Northern blot
# Protocol: Seventeen phosphorothioate ODNs containing sequences complementary to the 5′ or 3′ UTR of the human HDAC-4 gene (GenBank Accession No. AB006626) were screened as above. […] HDAC-4 MM1 and MM2 oligonucleotides were created as controls; compared to the antisense oligonucleotides, they each contain a 6-base mismatch.
# as §1
# Cells were harvested, and total RNAs were analyzed by Northern blot analysis. Briefly, total RNA was extracted using RNeasy miniprep columns (QIAGEN). […]
# MDAmb231 = assay: Apoptosis, Cell Death Detection ELISA; format: cell-based, human; conditions: fold over non-specific background, TSA at 100 ng/ml
# Protocol: as §3, §4
# mammalian HDAC = conditions: Yoshida et al., J. Biol. Chem 265: 17174-17179 (1990); cited from earlier work
# [1] = tested on: murine erythroleukemia cells; conditions: Yoshida et al, Cancer Research 47: 3688-3691 (1987); cited from earlier work
Molecule,antisense activity to human HDAC-1 (HDAC-1 RNA expression) (human HDAC-1),Apoptosis After 48 Hour Treatment (A549),Apoptosis After 48 Hour Treatment (HMEC),Apoptosis After 48 Hour Treatment (T24),expression of cyclin B1 (cyclin B1),expression of cyclin A (cyclin A),further results
"5′-CTTCAGCCAGGATGCCCACA-3′ (sugars from the 5' end m4 d12 m4, all phosphorothioate, methylation of C and T or U not given here) [HDAC-7 AS]",,,,,,,antisense activity to human HDAC-7 (human HDAC-7): antisense activity
"5′-CTTCGGTCTCACCTGCTTGG-3′ (sugars from the 5' end m4 d12 m4, all phosphorothioate, methylation of C and T or U not given here) [HDAC-5 AS]",,,,,,,antisense activity to human HDAC-5 (human HDAC-5): antisense activity
5′-GAAACGTGAGGGACTCAGCA-3′ (chemistry not given here) [HDAC-1 AS1],antisense activity,+ (“+”: 2-3X fold),− (“−”: <= 2x fold over non-specific background),− (“−”: <= 2x fold over non-specific background),repress expression,repress expression,
5′-GGAAGCCAGAGCTGGAGAGG-3′ (chemistry not given here) [HDAC-1 AS2],antisense activity,,,,repress expression,repress expression,
5′-TACAGTCCATGCAACCTCCA-3′ [HDAC-4 AS2],,,,,,,antisense activity to human HDAC-4 (human HDAC-4): antisense activity
"CC(/C=C/C(=O)NO)=C\[C@@H](C)C(=O)c1ccc(N(C)C)cc1 [TSA, (R)-Trichostatin A, reference compound]",,++ (“++”: 3-5X fold),+ (“+”: 2-3X fold),++ (“++”: 3-5X fold),,,Apoptosis After 48 Hour Treatment (MDAmb231): ++ (“++”: 3-5X fold); inhibition of mammalian HDAC (mammalian HDAC): potent inhibitor; induction of differentiation in murine erythroleukemia cells [1]: potent inducer of differentiation
